Patent US20230310334A1, “LIPID NANOPARTICLE” (SHENZHEN SHENXIN BIOTECHNOLOGY CO., LTD., priority 2020, published 2023)

System: luciferase mRNA (Fluc mRNA) expression
Assay: Luciferase mRNA delivery performance in vivo of lipid nanoparticles prepared from amino lipid compounds (IVIS imaging)
Set-up: species or system BALB/c mice
Conditions: for Average fluorescence intensity (intramuscular) / Average fluorescence intensity (subcutaneous) / Average fluorescence intensity (tail vein): Fluc mRNA LNP, 0.5 mg/kg, imaging 6 hours after injection, male BALB/c mice; for Average fluorescence intensity (intramuscular) / Average fluorescence intensity (subcutaneous): preparation process I (DOPE); for Average fluorescence intensity (tail vein): preparation process II (DSPC); for delivery capacity after introduction of the alkynyl group: in vivo delivery, compared with corresponding amino lipid compounds without alkynyl group (36, 37)
Protocol: Example 40: Evaluation of Luciferase mRNA Delivery Performance In Vivo of Lipid Nanoparticles Prepared from Amino Lipid Compounds
Preparation of lipid nanoparticles:
Preparation process I: The amino lipid compound described in the present invention and DOPE, cholesterol, PEG2000-DMG were mixed and dissolved in absolute ethanol in a molar ratio of 45:10:42.5:2.5. Two microinjection pumps were used, and the ratio of ethanol solution to sodium acetate solution (50 mM, pH=4.0) was controlled to be 1:3. A crude solution of lipid nanoparticles was prepared in a micro flow channel chip, then dialyzed for 6 hours with 1×PBS at a controlled temperature of 4° C. by using a dialysis cassette (Fisher, MWCO 20,000), and filtered with a 0.22 μm microporous filter membrane before use. The mass ratio of the amino lipid compound to luciferase mRNA (Fluc mRNA) was about 10:1. The administration route included subcutaneous and intramuscular injections.
Preparation process II: the molar ratio of amino lipid compound to DSPC, cholesterol, PEG2000-DMG was 50:10:38.5:1.5, and the preparation process was identical to the preparation process I. The administration route was tail vein administration.
Animal preparation: 6-week-old male BALB/c mice with body weights of about 20 g were selected, and fed in an SPF-grade feeding room. Animal experiments were strictly carried out according to the guidelines of the national health institution and the requirements of animal ethics. In vivo delivery: 9 mice were randomly selected per group and injected with lipid nanoparticles at a dose of 0.5 mg/kg by three administration routes: subcutaneous, intramuscular, and tail vein, respectively (three animals per administration route). After 6 hours, […] of 10 mg/mL potassium […] was injected into each mouse via the tail vein, and after 10 minutes, the mice were placed under an in vivo imaging system (IVIS-200, Xenogen), and the total fluorescence intensity of each mouse was observed and recorded by photographing. The expression intensities of Fluc mRNA delivered by the three administration routes of representative amino lipid compounds were shown in Tables 1-3. DLin-MC3 was used as a control.

| Compound | Average fluorescence intensity (intramuscular) | Average fluorescence intensity (subcutaneous) | Average fluorescence intensity (tail vein) | delivery capacity after introduction of the alkynyl group |
| --- | --- | --- | --- | --- |
| CCCCCC#CCCCOC(=O)CCCCCCCN(CCCCCCCC(=O)OC(CCCCCC)CCCCCCCC)C1CCC(O)C1 (stereo not drawn) [Compound 20] | 5.2E+05 | 3.7E+07 | – | – |
| CCCCC#CCCCOC(=O)CCCCCCCN(CCCCCCCC(=O)OC(CCCCCCCC)CCCCCCCC)C1CC(O)C1 (stereo not drawn) [Compound 18] | – | – | 7.1E+07 | – |
| CCCCCCCCCOC(=O)CCCCCCCN(CCCCO)CCCCCCCC(=O)OC(CCCCCCCC)CCCCCCCC [Compound 36, reference compound] | – | 1.1E+05 | 4.2E+05 | – |
| CCCCC#CCCCOC(=O)CCCCCCCCCCCCCN(CCCO)CCCCCCCC(=O)OC(CCCC)CCCCCC (stereo not drawn) [Compound 26] | 6.1E+07 | 1.7E+06 | – | – |
| CCCCC#CCCCOC(=O)CCCCCCCN(CCCCO)CCCCCCCC(=O)OC(CCCCCCCC)CCCCCCCC [Compound 17] | 2.7E+06 | 2.5E+06 | 5.1E+07 | significantly enhanced |
| CCCCC#CCCCOC(=O)CCCCN(CCCO)CCCCCCCC(=O)OCC(CCCCCC)CCCCCCCC (stereo not drawn) [Compound 28] | 6.1E+07 | 2.1E+06 | – | – |
| CCCCCC#CCCOC(=O)CCCCCCCN(CCCO)CCCCCCCC(=O)OC(CCCCCCCC)CCCCCCCC [Compound 6] | 2.1E+05 | 2.1E+06 | – | – |
| CCCC#CCCCOC(=O)CCCCCCCN(CCCO)CCCCCCCC(=O)OC(CCCCCCCC)CCCCCCCC [Compound 8] | 2.1E+07 | 7.1E+06 | 6.1E+06 | – |
| CCCCC#CCCCOC(=O)CCCCCCCCCN(CCCCO)CCCCCCCC(=O)OC(CCCCCCCC)CCCCCCCC [Compound 23] | 2.7E+05 | – | 6.1E+07 | – |
| CCCCCC#CCCCOC(=O)CCCCCCCN(CCCCCCCC(=O)OC(CCCCCCCC)CCCCCCCC)C1CCC(O)CC1 (stereo not drawn) [Compound 21] | 1.1E+07 | 4.1E+06 | – | – |
| CCCCC#CCCCOC(=O)CCCCCCCCCCCCCN(CCCCO)CCCCCCCC(=O)OC(CCCCCCCC)CCCCCCCC [Compound 24] | 2.1E+05 | – | 7.8E+06 | – |
| CCCCC#CCCCOC(=O)CCCCCCCN(CCCO)CCCCCCCC(=O)OC(CCCCCCCC)CCCCCCCC [Compound 9] | 5.1E+06 | 2.7E+06 | 2.8E+07 | – |
| CCCCCCC#CCCCOC(=O)CCCCCCCN(CCCO)CCCCCCCC(=O)OC(CCCCCCCC)CCCCCCCC [Compound 11] | 2.1E+06 | 2.1E+05 | 5.1E+07 | – |
| CCCCCCCCCOC(=O)CCCCCCCN(CCCCCCCC(=O)OC(CCCCCCCC)CCCCCCCC)CCCN(C)C [Compound 37, reference compound] | 2.5E+06 | 2.0E+05 | – | – |
| CCCCCCC#CCCOC(=O)CCCCCCCN(CCCO)CCCCCCCC(=O)OC(CCCCCCCC)CCCCCCCC [Compound 7] | 4.1E+05 | 2.1E+05 | 8.1E+06 | – |
| CCCCC#CCCCOC(=O)CCCCCCCCCCCCCN(CCCO)CCCCCCCC(=O)OC(CCCC)CCCC [Compound 25] | 2.1E+05 | 2.6E+07 | – | – |
| CCCCCCCC#CCOC(=O)CCCCCCCN(CCCO)CCCCCCCC(=O)OC(CCCCCCCC)CCCCCCCC [Compound 4] | 2.1E+06 | 2.1E+05 | 2.9E+07 | – |
| CCCCC#CCCOC(=O)CCCCCCCN(CCCCO)CCCCCCCC(=O)OC(CCCCCCCC)CCCCCCCC [Compound 15] | 2.8E+07 | 3.1E+05 | – | – |

| Compound | Average fluorescence intensity (intramuscular) | Average fluorescence intensity (subcutaneous) | Average fluorescence intensity (tail vein) | delivery capacity after introduction of the alkynyl group |
| --- | --- | --- | --- | --- |
| CCCCC#CCCCOC(=O)CCCCCCCN(CCCCCCCC(=O)OC(CCCCCCCC)CCCCCCCC)CCCN(C)C [Compound 31] | 1.5E+07 | 5.1E+05 | – | significantly enhanced |
| CCCCCCCCCC#CC(=O)OCCCCCCCN(CCCO)CCCCCCCOC(=O)C(CCCCCC)CCCCCCCC (stereo not drawn) [Compound 29] | 1.8E+07 | 8.1E+06 | – | – |
| CCCCCCC#CCCOC(=O)CCCCCCCN(CCO)CCCCCCCC(=O)OC(CCCCCCCC)CCCCCCCC [Compound 14] | 4.1E+06 | 2.1E+06 | 1.1E+07 | – |
| CCCC#CCCCOC(=O)CCCCCCCN(CCCC#N)CCCCCCCC(=O)OC(CCCCCCCC)CCCCCCCC [Compound 30] | 1.1E+07 | 7.1E+06 | – | – |
| CCCCC#CCCCOC(=O)CCCCCCCN(CCCCCCCC(=O)OC(CCCCCCCC)CCCCCCCC)CCCNC(=O)CCCCC [Compound 34] | 4.8E+06 | 5.3E+05 | – | – |
| CCCCC#CCOC(=O)CCCCCCCN(CCCO)CCCCCCCC(=O)OC(CCCCCCCC)CCCCCCCC [Compound 1] | – | 1.4E+07 | – | – |
| CCCCC#CCCOC(=O)CCCCCCCN(CCCO)CCCCCCCC(=O)OC(CCCCCCCC)CCCCCCCC [Compound 5] | – | 7.1E+06 | – | – |
| CCCCC#CCCCOC(=O)CCCCCCCN(CCCCCCCC(=O)OC(CCCCCCCC)CCCCCCCC)CCCOC(=O)CCCCC [Compound 33] | 1.1E+07 | 3.1E+06 | – | – |
| CCCCC/C=C\C/C=C\CCCCCCCCC(CCCCCCCC/C=C\C/C=C\CCCCC)OC(=O)CCCN(C)C [Compound 35, (6Z,9Z,28Z,31Z)-heptatriacont-6,9,28,31-tetraene-19-yl 4-(N,N-dimethylamino)butanoate, reference compound] | 3.9E+03 | 4.1E+04 | 6.2E+06 | – |
| CCCCCC#CCCOC(=O)CCCCCCCN(CCCCO)CCCCCCCC(=O)OC(CCCCCCCC)CCCCCCCC [Compound 16] | 1.4E+07 | 2.7E+06 | – | – |
| CCCCCC#CCCCOC(=O)CCCCCCCN(CCCCCCCC(=O)OC(CCCCCCCC)CCCCCCCC)C1CCC(O)C1 (stereo not drawn) [Compound 19] | 2.1E+05 | – | 9.1E+06 | – |
| CCCCCC#CCCCOC(=O)CCCCCCCN(CCCO)CCCCCCCC(=O)OC(CCCCCCCC)CCCCCCCC [Compound 10] | 2.1E+05 | 3.1E+05 | 2.5E+07 | – |
| CCCCCCC#CCOC(=O)CCCCCCCN(CCO)CCCCCCCC(=O)OC(CCCCCCCC)CCCCCCCC [Compound 13] | 2.1E+06 | 2.6E+07 | – | – |
| CCCCCC#CCOC(=O)CCCCCCCN(CCO)CCCCCCCC(=O)OC(CCCCCCCC)CCCCCCCC [Compound 12] | 2.1E+06 | 3.2E+07 | – | – |
| CCCCCC#CCOC(=O)CCCCCCCN(CCCO)CCCCCCCC(=O)OC(CCCCCCCC)CCCCCCCC [Compound 2] | 2.4E+06 | 1.1E+07 | – | – |
| CCCCC#CCCCOC(=O)CCCCN(CCCCO)CCCCCCCC(=O)OC(CCCCCCCC)CCCCCCCC [Compound 22] | 3.1E+05 | 2.8E+07 | – | – |
| CCCC#CCCCOC(=O)CCCCCCCN(CCCCCCCC(=O)OC(CCCCCCCC)CCCCCCCC)CCCN1CCOCC1 [Compound 32] | 2.8E+07 | 7.1E+05 | – | – |
| CCCCCCC#CCOC(=O)CCCCCCCN(CCCO)CCCCCCCC(=O)OC(CCCCCCCC)CCCCCCCC [Compound 3] | 2.1E+06 | 2.1E+06 | 2.1E+07 | – |
